From the supplement of paper PMC10307832

What was measured:
Experiment in all cases: relative viability (nuclei count vs DMSO), 5 days (fraction); higher = more cells survive
[1] = compound: Cc1ccc2nc(NCCN)c3ncc(C)n3c2c1 + N=C(N)NC(=N)NCCc1ccccc1 [Phenformin] (partner 250 µM)
How it was run: (§1)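 Medians of duplicate plates are given as relative viability. That measure is the nuclei count in treated wells divided by the count in vehicle wells. Counts were taken on 4× images of lung cancer cell lines in 1536-well plates, 5 days after pin-tool dosing the day after seeding with one drug alone or a fixed anchor-drug dose plus five library-drug doses (not always all listed) in √10 steps.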

[2] = compound: O=C(/C=C/c1ccccc1)NC(NC(=S)Nc1cccc2cccnc12)C(Cl)(Cl)Cl [Salubrinal] + CC(=O)Nc1cccc(-n2c(=O)n(C3CC3)c(=O)c3c(Nc4ccc(I)cc4F)n(C)c(=O)c(C)c32)c1 [Trametinib] (partner 0.02 µM)
How it was run: as §1

[3] = compound: O=C(/C=C/c1ccccc1)NC(NC(=S)Nc1cccc2cccnc12)C(Cl)(Cl)Cl [Salubrinal] + CS(=O)(=O)N1CCN(Cc2cc3nc(-c4cccc5[nH]ncc45)nc(N4CCOCC4)c3s2)CC1 [Pictilisib] (partner 1 µM)
How it was run: as §1

[4] = compound: O=C(/C=C/c1ccccc1)NC(NC(=S)Nc1cccc2cccnc12)C(Cl)(Cl)Cl [Salubrinal] + O=C(CCCCCCC(=O)Nc1ccccc1)NO [Vorinostat] (partner 1 µM)
How it was run: as §1

Cell Line | relative viability ([1]; first compound 0.04 µM) | relative viability ([1]; first compound 0.1265 µM) | relative viability ([1]; first compound 0.4 µM) | relative viability ([1]; first compound 1.265 µM) | relative viability ([1]; first compound 4 µM) | relative viability ([2]; first compound 0.08 µM) | relative viability ([2]; first compound 0.253 µM) | relative viability ([2]; first compound 0.8 µM) | relative viability ([2]; first compound 2.53 µM) | relative viability ([2]; first compound 8 µM) | relative viability ([3]; first compound 0.08 µM) | relative viability ([3]; first compound 0.253 µM) | relative viability ([3]; first compound 0.8 µM) | relative viability ([3]; first compound 2.53 µM) | relative viability ([3]; first compound 8 µM) | relative viability ([4]; first compound 0.08 µM) | relative viability ([4]; first compound 0.253 µM) | relative viability ([4]; first compound 0.8 µM) | relative viability ([4]; first compound 2.53 µM) | relative viability ([4]; first compound 8 µM)
NCI-H596 | 0.695 | 0.787 | 0.644 | 0.614 | 0.826 | 0.851 | 0.745 | 0.747 | 0.817 | 0.675 | 0.421 | 0.347 | 0.437 | 0.456 | 0.401 | 0.607 | 0.356 | 0.796 | 0.825 | 0.715
A-427 | 0.388 | 0.308 | 0.35 | 0.265 | 0.296 | 0.782 | 0.812 | 0.791 | 0.689 | 0.764 | 0.805 | 0.748 | 0.853 | 0.785 | 0.759 | 0.859 | 0.905 | 0.896 | 0.814 | 0.827
EMC-BAC-2 | 0.518 | 0.562 | 0.499 | 0.536 | 0.54 | 0.948 | 0.878 | 0.937 | 0.906 | 0.973 | 0.607 | 0.454 | 0.574 | 0.583 | 0.565 | 0.388 | 0.477 | 0.798 | 0.514 | 0.494
NCI-H441 | 0.791 | 0.85 | 0.922 | 0.923 | 0.769 | 0.48 | 0.415 | 0.48 | 0.507 | 0.462 | 0.479 | 0.432 | 0.705 | 0.534 | 0.294 | 0.824 | 0.563 | 1.18 | 0.605 | 0.616
LCLC-103H | 0.342 | 0.349 | 0.332 | 0.365 | 0.348 | 0.737 | 0.682 | 0.691 | 0.738 | 0.673 | 0.591 | 0.599 | 0.743 | 0.562 | 0.535 | 0.725 | 0.716 | 0.891 | 0.714 | 0.748
HCC-827 | 0.409 | 0.402 | 0.401 | 0.39 | 0.384 | 0.586 | 0.544 | 0.515 | 0.5 | 0.548 | 0.959 | 1.02 | 1.06 | 0.994 | 0.898 | 0.838 | 0.917 | 0.965 | 0.788 | 0.785
NCI-H1355 | 0.484 | 0.476 | 0.441 | 0.391 | 0.42 | 0.445 | 0.452 | 0.414 | 0.433 | 0.315 | 0.366 | 0.433 | 0.45 | 0.426 | 0.425 | 0.684 | 0.636 | 0.715 | 0.657 | 0.645
NCI-H1734 | 0.425 | 0.417 | 0.355 | 0.38 | 0.389 | 0.704 | 0.742 | 0.787 | 0.656 | 0.597 | 0.452 | 0.508 | 0.503 | 0.517 | 0.438 | 0.834 | 0.801 | 0.916 | 0.77 | 0.745
